Measured values taken from US20220313639A1, “MITOCHONDRIAL FUNCTION ACTIVATOR” (Yuki Gosei Kogyo Co., Ltd., priority 2019, published 2022).
Where two headings read alike, the source gives them in different places.

Key:
[1] = tested on: undifferentiated mouse skeletal muscle-derived myoblast line, C2C12 cells; conditions: for mitochondrial activation (Mito Tracker Red CMXRos): vs 1×PBS control
Procedure: (§1) C2C12 cells were subcultured at 37° C. in the presence of 5% CO2, using Dulbecco's Modified Eagle Medium (DMEM) (Nissui, Tokyo, Japan) containing 10% inactivated FBS, penicillin (100,000 U/L; Meiji, Tokyo, Japan), streptomycin (100 mg/L: Meiji), NaHCO3 (2.0 g/L: Wako, Osaka, Japan), and L-glutamine (Wako).
(§2) The number of activated mitochondria in C2C12 cells was measured as follows. C2C12 cells were seeded in 6-well plates at 4.0×10^5 cells/well, and after 24 hours, β-alanine was added thereto at a concentration of 500 μM or 1 mM. In addition, 1×PBS was added to as a control well. After 2 hours from the above addition, the medium was removed by suction, and 2 mL/well of Mito Tracker Red CMXRos (Invitrogen) (Invitrogen) which is diluted to 250 nM in DMEM medium containing 10% FBS, was added. Then, the whole was incubated for 30 minutes at 37° C. in the presence of 5% CO2 under shading. Then, the diluted solution was removed by suction, and 1×PBS was added at 1 mL/well to wash the cells. 1×PBS was removed by suction and trypsin was added at 500 μL/well. Then, trypsin was removed by suction and incubated at 37° C. in the presence of 5% CO2 for 5 minutes under shading. After incubation, the cells were suspended to 1 mL of DMEM medium containing 10% FBS to be collected in a 1.5 mL tube.
(§3) After passing this cell suspension through a nylon mesh (Kyoshin Riko), the cells were measured by a flow cytometer (EPICS XL System II-JK, Beckman Coulter, CA, USA; Cell Analyzer EC800 CSC, Sony). The analysis was performed at the FCM analysis software FlowJo (TOMY Digital Biology, Tokyo, Japan).
In addition, cells were seeded, and β-alanine was added thereto at a concentration of 100 μM or 1 mM. After 24 hours, β-alanine was secondary added, and the medium was aspirated after 24 hours of the second addition. Using the above cells treated with β-alanine for 48 hours as cells to which the diluted solution of Mito Tracker Red CMXRos (Invitrogen) was added, the same procedure as the cells treated with β-alanine for 2 hours was repeated.
On the other hand, Mito Tracker Red CMXRos (Invitrogen) is a fluorescent reagent that stains mitochondria in a membrane potential-dependent manner. Therefore,
when a peak of the flow cytometer histogram shifts to the right by the addition of β-alanine, it indicates mitochondrial activity was enhanced.
(§4) The procedure described in Example 1 was repeated, except that glycine was used instead of β-alanine.
The cells were prepared by repeating the procedure of Mito Tracker Red CMX Ros in Example 1 except that the treatment with β-alanine was set to 72 hours.

[2] = tested on: C2C12 cells differentiated into myotube cells
Procedure: as §2, with “C2C12” for “The number of activated mitochondria in C2C12 cells was measured as follows. C2C12”, “Green FM” for “Red CMXRos (Invitrogen)”, “200” for “250”, “tube. After passing this cell suspension through a nylon mesh (Kyoshin Riko, Tokyo, Japan), the cells were measured by a flow cytometer (EPICS XL System II-JK, Beckman Coulter, CA, USA; Cell Analyzer EC800 CSC, Sony, Tokyo, Japan). The analysis was performed at the FCM analysis software FlowJo (TOMY Digital Biology, Tokyo, Japan).” for “tube.”
(§5) In addition, cells were seeded, and β-alanine was added thereto at a concentration of 100 μM or 1 mM. […]

[3] = tested on: undifferentiated mouse skeletal muscle-derived myoblast line, C2C12 cells; conditions: vs 1×PBS control
Procedure: as §1
The number of mitochondria in C2C12 cells was measured as follows.
as §2, with “C2C12” for “The number of activated mitochondria in C2C12 cells was measured as follows. C2C12”, “Green FM” for “Red CMXRos (Invitrogen)”, “200” for “250”, “tube. After passing this cell suspension through a nylon mesh (Kyoshin Riko, Tokyo, Japan), the cells were measured by a flow cytometer (EPICS XL System II-JK, Beckman Coulter, CA, USA; Cell Analyzer EC800 CSC, Sony, Tokyo, Japan). The analysis was performed at the FCM analysis software FlowJo (TOMY Digital Biology, Tokyo, Japan).” for “tube.”
In addition, cells were seeded, and β-alanine was added thereto at a concentration of 100 μM or 1 mM. After 24 hours, β-alanine was secondary added, and the medium was aspirated after 24 hours of the second addition. Using the above cells treated with β-alanine for 48 hours as cells to which the diluted solution of Mito Tracker Green FM (Invitrogen) was added, the same procedure as the cells treated with β-alanine for 2 hours was repeated.
Mito Tracker Green FM (Invitrogen) is a fluorescent reagent that stains mitochondria independently of the membrane potential.
as §4

[4] = tested on: C2C12 cells differentiated into myotube cells; remark: listed apart in the source
Procedure: as §2, §3, §5

Pgc-1α gene = conditions: differentiated C2C12 cells, 48 hours, relative to β-actin, ΔΔCt method
Acaa2 gene = conditions: differentiated C2C12 cells; 500 μM
Procedure: (§6) In this example, the transcription of the genes for Acaa1b and Acaa2 in β-alanine-treated mouse skeletal muscle-derived myoblast line, C2C12 cells was measured.
(§7) The procedure described in Example 4 was repeated except that the Acaa1b forward primer and the Acaa1b reverse primer, or the Acaa2 forward primer and the Acaa2 reverse primer were used instead of the Pgc-1α forward primer and the Pgc-1α reverse primer.

Acaa1b gene = conditions: differentiated C2C12 cells; 500 μM
Procedure: as §6, §7

[5] = tested on: undifferentiated mouse skeletal muscle-derived myoblast line, C2C12 cells; conditions: 48 hours
Procedure: In this example, mitochondrial activation was examined by using a confocal laser scanning microscope.
The cells treated with β-alanine for 48 hours were prepared by the same procedure as in Example 1. C2C12 cells were seeded at a concentration of 3.0×10^4 cells/mL or 5.0×10^4 cell s/mL, and Mito Tracker Green FM (Invitrogen) and Mito Tracker Red CMXRos (Invitrogen) were added simultaneously. The resulting cells were observed under a confocal laser scanning microscope (Olympus).

[6] = treatment time 2 hours, 500 μM or 1 mM
[7] = treatment time 48 hours, 100 μM or 1 mM

SMILES | mitochondrial activation (Mito Tracker Red CMXRos) [1, 6] | mitochondrial activation (Mito Tracker Red CMXRos) [1, 7] | number of mitochondria (Mito Tracker Green FM) ([2]; treatment time 2 hours) | number of mitochondria (Mito Tracker Green FM) ([2]; treatment time 48 hours) | number of mitochondria (Mito Tracker Green FM) [3, 6] | number of mitochondria (Mito Tracker Green FM) [3, 7] | mitochondrial activation (Mito Tracker Red CMXRos) ([4]; treatment time 2 hours) | mitochondrial activation (Mito Tracker Red CMXRos) ([4]; treatment time 48 hours) | expression of Pgc-1α (Pgc-1α gene; 500 μM) | fluorescence of Mito Tracker Red (flow cytometry) ([1]; treatment 72 hours) | expression of Acaa2 (Acaa2 gene) | expression of Acaa1b (Acaa1b gene) | red fluorescence of Mito Tracker Red CMX Ros (confocal microscope) ([5]; 500 μM) | red fluorescence of Mito Tracker Red CMX Ros (confocal microscope) ([5]; 1 mM) | expression of Pgc-1α (Pgc-1α gene; 1 mM)
NCC(=O)O [glycine] | mitochondrial activation was confirmed | mitochondrial activation was confirmed | increased in a concentration-dependent manner | increased in a concentration-dependent manner | increased in a concentration-dependent manner | increased in a concentration-dependent manner | mitochondrial activation was confirmed | mitochondrial activation was confirmed | enhanced the expression | – | – | – | – | – | –
NCCC(=O)O [β-alanine, 3-aminopropanoic acid] | mitochondrial activation was confirmed | mitochondrial activation was confirmed | – | – | increased in a concentration-dependent manner | increased in a concentration-dependent manner | – | – | enhanced the expression | increased the fluorescence | enhanced the expression | enhanced the expression | strengthened the red fluorescence | further strengthened the red fluorescence | enhanced the expression
